Here are results for eleven molecules from patent publication US20260098061A1, “EPHA2-BINDING PENDING PEPTIDE AND COMPOSITION COMPRISING SAME” (PeptiDream Inc., priority 2022, published 2026).

Numbered stars: 1 amine (or outer) side, 2 acyl side, 3 side chain; on linkers, the order of the positions; unused ones are H or OH. Bridge positions count the residues as written; N and C are the ends. Square brackets hold non-standard residues; d marks the D form. Side chains are listed from the residue outwards. Peptide text beside a SMILES is read from it. * marks the point of attachment. NH(1-deoxy-D-glucityl) = OC[C@@H](O)[C@@H](O)[C@H](O)[C@@H](O)CN*; Trp(1-Me,7-Cl) = Cn1cc(C[C@H](N)C(=O)O)c2cccc(Cl)c21; dPhe(3-CONH2) = NC(=O)c1cccc(C[C@@H](N)C(=O)O)c1; Piperazinyl(4-CH2COOH) = O=C(O)CN1CCN(*)CC1; Trp(1-Me) = Cn1cc(C[C@H](N)C(=O)O)c2ccccc21; NMe3Pal = CN[C@@H](Cc1cccnc1)C(=O)O; NMeF = CN[C@@H](Cc1ccccc1)C(=O)O; hArg = N=C(N)NCCCC[C@H](N)C(=O)O; hCit = NC(=O)NCCCC[C@H](N)C(=O)O; Gly(cBu) = N[C@H](C(=O)O)C1CCC1; NMeE = CN[C@@H](CCC(=O)O)C(=O)O; Aad = N[C@@H](CCCC(=O)O)C(=O)O; NMeN = CN[C@@H](CC(N)=O)C(=O)O; CO = O=C([*:1])[*:2] Some results are limits rather than exact numbers.

The target of the assay is T1, Recombinant Human EphA2 Fc Protein (Homo sapiens, UniProt P29317).
T1 construct: purchased Elabscience
Nature of the assay: SPR interaction analysis (Biacore T200), kinetics of peptides against EphA2. The conditions noted are these: Recombinant Human EphA2 Fc Protein captured by Human Antibody Capture kit; single-cycle kinetics; 25° C.; HBS-P+ buffer with 1% DMSO. The format is binding. Put shortly: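 On a Biacore T200 at 25° C, Fc-tagged human EphA2 was captured via anti-human antibody; peptides ran as five serial dilutions in HBS-P+ pH 7.4 with 1% DMSO by single-cycle kinetics. Baseline-subtracted data fitted for ka and kd, from which KD was derived.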
Background: Surface plasmon resonance follows binding to a sensor surface in real time, without labels.

With `C[C@@H](O)[C@@H]1NC(=O)[C@H](Cc2cn(C)c3ccccc23)NC(=O)[C@H](CCCCNC(N)=O)NC(=O)[C@H](Cc2cn(C)c3c(Cl)cccc23)NC(=O)[C@H](CCC(=O)O)N(C)C(=O)[C@H](CCCC(N)=O)NC(=O)[C@H](C2CCC2)NC(=O)[C@H](CC(N)=O)NC(=O)[C@H](Cc2ccccc2)N(C)C(=O)[C@@H](Cc2cccc(C(N)=O)c2)NC(=O)CSC[C@@H](C(N)=O)NC(=O)[C@H](CCCCNC(=N)N)NC1=O` [PDC_EphA2-00019426, df3CON-MeF-N-Cbg-Hgn-MeN-W1Me7Cl-Hcit-W1Me-T-Hgn-C-NH2] ({CH2CO}-[dPhe(3-CONH2)][NMeF]N[Gly(cBu)][Aad](NH2)[NMeE][Trp(1-Me,7-Cl)][hCit][Trp(1-Me)]T[hArg]C-NH2; thioether N-12), the Kd was less than 1 nM.

On to `C[C@@H](O)[C@@H]1NC(=O)[C@H](Cc2cn(C)c3ccccc23)NC(=O)[C@H](CCCCNC(N)=O)NC(=O)[C@H](Cc2cn(C)c3c(Cl)cccc23)NC(=O)[C@H](CC(N)=O)N(C)C(=O)[C@H](CCCC(N)=O)NC(=O)[C@H](C2CCC2)NC(=O)[C@H](CC(N)=O)NC(=O)[C@H](Cc2cccnc2)N(C)C(=O)[C@@H](Cc2cccc(C(N)=O)c2)NC(=O)CSC[C@@H](C(N)=O)NC(=O)[C@H](CCCNC(=N)N)NC1=O` [PDC_EphA2-00019428, df3CON-Me3Py-N-Cbg-Hgn-MeN-W1Me7Cl-Hcit-W1Me-T-R-C-NH2] ({CH2CO}-[dPhe(3-CONH2)][NMe3Pal]N[Gly(cBu)][Aad](NH2)[NMeN][Trp(1-Me,7-Cl)][hCit][Trp(1-Me)]TRC-NH2; thioether N-12), for which the Kd was less than 1 nM.

For the molecule `C[C@@H](O)[C@@H]1NC(=O)[C@H](Cc2cn(C)c3ccccc23)NC(=O)[C@H](CCCCNC(N)=O)NC(=O)[C@H](Cc2cn(C)c3c(Cl)cccc23)NC(=O)[C@H](CC(N)=O)N(C)C(=O)[C@H](CCCC(N)=O)NC(=O)[C@H](C2CCC2)NC(=O)[C@H](CC(N)=O)NC(=O)[C@H](Cc2cccnc2)N(C)C(=O)[C@@H](Cc2cccc(C(N)=O)c2)NC(=O)CSC[C@@H](C(N)=O)NC(=O)[C@H](CCCCNC(=N)N)NC1=O` [PDC_EphA2-00019429, df3CON-Me3Py-N-Cbg-Hgn-MeN-W1Me7Cl-Hcit-W1Me-T-Har-C-NH2] ({CH2CO}-[dPhe(3-CONH2)][NMe3Pal]N[Gly(cBu)][Aad](NH2)[NMeN][Trp(1-Me,7-Cl)][hCit][Trp(1-Me)]T[hArg]C-NH2; thioether N-12), the Kd is less than 1 nM.

Turning to `C[C@@H](O)[C@@H]1NC(=O)[C@H](Cc2cn(C)c3ccccc23)NC(=O)[C@H](CCCCNC(=O)N2CCN(CC(=O)O)CC2)NC(=O)[C@H](Cc2cn(C)c3c(Cl)cccc23)NC(=O)[C@H](CC(N)=O)N(C)C(=O)[C@H](CCCC(N)=O)NC(=O)[C@H](C2CCC2)NC(=O)[C@H](CC(N)=O)NC(=O)[C@H](Cc2cccnc2)N(C)C(=O)[C@@H](Cc2cccc(C(N)=O)c2)NC(=O)CSC[C@@H](C(N)=O)NC(=O)[C@H](CCCCNC(=N)N)NC1=O` [PDC_EphA2-00019430, df3CON-Me3Py-N-Cbg-Hgn-MeN-W1Me7Cl-KCOpipzaa-W1Me-T-Har-C-NH2] ({CH2CO}-[dPhe(3-CONH2)][NMe3Pal]N[Gly(cBu)][Aad](NH2)[NMeN][Trp(1-Me,7-Cl)]K([CO-Piperazinyl(4-CH2COOH)])[Trp(1-Me)]T[hArg]C-NH2; thioether N-12), the Kd is less than 1 nM.

Consider `C[C@@H](O)[C@@H]1NC(=O)[C@H](Cc2cn(C)c3ccccc23)NC(=O)[C@H](CCC(=O)NC[C@H](O)[C@@H](O)[C@H](O)[C@H](O)CO)NC(=O)[C@H](Cc2cn(C)c3c(Cl)cccc23)NC(=O)[C@H](Cc2ccccc2)N(C)C(=O)[C@H](CCCC(N)=O)NC(=O)[C@H](C2CCC2)NC(=O)[C@H](CC(N)=O)NC(=O)[C@H](Cc2ccccc2)N(C)C(=O)[C@@H](Cc2cccc(C(N)=O)c2)NC(=O)CSC[C@@H](C(N)=O)NC(=O)[C@H](CCCC(N)=O)NC1=O` [PDC_EphA2-00019431, df3CON-MeF-N-Cbg-Hgn-MeF-W1Me7Cl-Qglucamine-W1Me-T-Hgn-C-NH2] ({CH2CO}-[dPhe(3-CONH2)][NMeF]N[Gly(cBu)][Aad](NH2)[NMeF][Trp(1-Me,7-Cl)]E(NH(1-deoxy-D-glucityl))[Trp(1-Me)]T[Aad](NH2)C-NH2; thioether N-12), for which the Kd was less than 1 nM.

As to `C[C@@H](O)[C@@H]1NC(=O)[C@H](Cc2cn(C)c3ccccc23)NC(=O)[C@H](CCCCNC(=O)N2CCN(CC(=O)O)CC2)NC(=O)[C@H](Cc2cn(C)c3c(Cl)cccc23)NC(=O)[C@H](Cc2ccccc2)N(C)C(=O)[C@H](CCCC(N)=O)NC(=O)[C@H](C2CCC2)NC(=O)[C@H](CC(N)=O)NC(=O)[C@H](Cc2ccccc2)N(C)C(=O)[C@@H](Cc2cccc(C(N)=O)c2)NC(=O)CSC[C@@H](C(N)=O)NC(=O)[C@H](CCCC(N)=O)NC1=O` [PDC_EphA2-00019432, df3CON-MeF-N-Cbg-Hgn-MeF-W1Me7Cl-KCOpipzaa-W1Me-T-Hgn-C-NH2] ({CH2CO}-[dPhe(3-CONH2)][NMeF]N[Gly(cBu)][Aad](NH2)[NMeF][Trp(1-Me,7-Cl)]K([CO-Piperazinyl(4-CH2COOH)])[Trp(1-Me)]T[Aad](NH2)C-NH2; thioether N-12), the Kd is less than 1 nM.

Take `C[C@@H](O)[C@@H]1NC(=O)[C@H](Cc2cn(C)c3ccccc23)NC(=O)[C@H](CCC(=O)NC[C@H](O)[C@@H](O)[C@H](O)[C@H](O)CO)NC(=O)[C@H](Cc2cn(C)c3c(Cl)cccc23)NC(=O)[C@H](Cc2ccccc2)N(C)C(=O)[C@H](CCCC(N)=O)NC(=O)[C@H](C2CCC2)NC(=O)[C@H](CC(N)=O)NC(=O)[C@H](Cc2cccnc2)N(C)C(=O)[C@@H](Cc2cccc(C(N)=O)c2)NC(=O)CSC[C@@H](C(N)=O)NC(=O)[C@H](CCCC(N)=O)NC1=O` [PDC_EphA2-00019433, df3CON-Me3Py-N-Cbg-Hgn-MeF-W1Me7Cl-Qglucamine-W1Me-T-Hgn-C-NH2] ({CH2CO}-[dPhe(3-CONH2)][NMe3Pal]N[Gly(cBu)][Aad](NH2)[NMeF][Trp(1-Me,7-Cl)]E(NH(1-deoxy-D-glucityl))[Trp(1-Me)]T[Aad](NH2)C-NH2; thioether N-12): the Kd was less than 1 nM.

Take `C[C@@H](O)[C@@H]1NC(=O)[C@H](Cc2cn(C)c3ccccc23)NC(=O)[C@H](CCCCNC(=O)N2CCN(CC(=O)O)CC2)NC(=O)[C@H](Cc2cn(C)c3c(Cl)cccc23)NC(=O)[C@H](Cc2ccccc2)N(C)C(=O)[C@H](CCCC(N)=O)NC(=O)[C@H](C2CCC2)NC(=O)[C@H](CC(N)=O)NC(=O)[C@H](Cc2cccnc2)N(C)C(=O)[C@@H](Cc2cccc(C(N)=O)c2)NC(=O)CSC[C@@H](C(N)=O)NC(=O)[C@H](CCCC(N)=O)NC1=O` [PDC_EphA2-00019434, df3CON-Me3Py-N-Cbg-Hgn-MeF-W1Me7Cl-KCOpipzaa-W1Me-T-Hgn-C-NH2] ({CH2CO}-[dPhe(3-CONH2)][NMe3Pal]N[Gly(cBu)][Aad](NH2)[NMeF][Trp(1-Me,7-Cl)]K([CO-Piperazinyl(4-CH2COOH)])[Trp(1-Me)]T[Aad](NH2)C-NH2; thioether N-12): the Kd is less than 1 nM.

`C[C@@H](O)[C@@H]1NC(=O)[C@H](Cc2cn(C)c3ccccc23)NC(=O)[C@H](CCC(=O)NC[C@H](O)[C@@H](O)[C@H](O)[C@H](O)CO)NC(=O)[C@H](Cc2cn(C)c3c(Cl)cccc23)NC(=O)[C@H](Cc2cccnc2)N(C)C(=O)[C@H](CCCC(N)=O)NC(=O)[C@H](C2CCC2)NC(=O)[C@H](CC(N)=O)NC(=O)[C@H](Cc2ccccc2)N(C)C(=O)[C@@H](Cc2cccc(C(N)=O)c2)NC(=O)CSC[C@@H](C(N)=O)NC(=O)[C@H](CCCC(N)=O)NC1=O` [PDC_EphA2-00019435, df3CON-MeF-N-Cbg-Hgn-Me3Py-W1Me7Cl-Qglucamine-W1Me-T-Hgn-C-NH2] ({CH2CO}-[dPhe(3-CONH2)][NMeF]N[Gly(cBu)][Aad](NH2)[NMe3Pal][Trp(1-Me,7-Cl)]E(NH(1-deoxy-D-glucityl))[Trp(1-Me)]T[Aad](NH2)C-NH2; thioether N-12): the Kd is less than 1 nM.

As to `C[C@@H](O)[C@@H]1NC(=O)[C@H](Cc2cn(C)c3ccccc23)NC(=O)[C@H](CCCCNC(=O)N2CCN(CC(=O)O)CC2)NC(=O)[C@H](Cc2cn(C)c3c(Cl)cccc23)NC(=O)[C@H](Cc2cccnc2)N(C)C(=O)[C@H](CCCC(N)=O)NC(=O)[C@H](C2CCC2)NC(=O)[C@H](CC(N)=O)NC(=O)[C@H](Cc2ccccc2)N(C)C(=O)[C@@H](Cc2cccc(C(N)=O)c2)NC(=O)CSC[C@@H](C(N)=O)NC(=O)[C@H](CCCC(N)=O)NC1=O` [PDC_EphA2-00019436, df3CON-MeF-N-Cbg-Hgn-Me3Py-W1Me7Cl-KCOpipzaa-W1Me-T-Hgn-C-NH2] ({CH2CO}-[dPhe(3-CONH2)][NMeF]N[Gly(cBu)][Aad](NH2)[NMe3Pal][Trp(1-Me,7-Cl)]K([CO-Piperazinyl(4-CH2COOH)])[Trp(1-Me)]T[Aad](NH2)C-NH2; thioether N-12), the Kd is less than 1 nM.

Consider `C[C@@H](O)[C@@H]1NC(=O)[C@H](Cc2cn(C)c3ccccc23)NC(=O)[C@H](CCC(=O)NC[C@H](O)[C@@H](O)[C@H](O)[C@H](O)CO)NC(=O)[C@H](Cc2cn(C)c3c(Cl)cccc23)NC(=O)[C@H](CCC(=O)O)N(C)C(=O)[C@H](CCCC(N)=O)NC(=O)[C@H](C2CCC2)NC(=O)[C@H](CC(N)=O)NC(=O)[C@H](Cc2cccnc2)N(C)C(=O)[C@@H](Cc2cccc(C(N)=O)c2)NC(=O)CSC[C@@H](C(N)=O)NC(=O)[C@H](CCCC(N)=O)NC1=O` [PDC_EphA2-00019439, df3CON-Me3Py-N-Cbg-Hgn-MeE-W1Me7Cl-Qglucamine-W1Me-T-Hgn-C-NH2] ({CH2CO}-[dPhe(3-CONH2)][NMe3Pal]N[Gly(cBu)][Aad](NH2)[NMeE][Trp(1-Me,7-Cl)]E(NH(1-deoxy-D-glucityl))[Trp(1-Me)]T[Aad](NH2)C-NH2; thioether N-12), for which the dissociation constant (Kd) was less than 1 nM.

A word on the Kd: it is the free concentration of one partner at which half of the binding sites on the other are occupied at equilibrium, for simple one-to-one binding.
